Data: patent publication US4457917A, “Peptide, process for its preparation and pharmaceutical composition containing same” (Max-Planck-Gesellschaft zur Foerderung der Wissenschaften …, priority 1981, dated 1984)
Non-standard residues stand in square brackets, D forms with d. No end group written: not given here. pGlu = O=C1CC[C@@H](C(=O)O)N1

How the values were obtained:
[1] = test system: Hydra; assay: Mitogen action on cell division in Hydra; format: in vivo
[2] = test system: Hydra; assay: Head-specific determination in Hydra (interstitial parent cell determined to the nerve cell); format: in vivo
[3] = test system: embryonal brain cells; assay: Growth-stimulating action on embryonal brain cells; format: cell-based; conditions: mammals
[4] = Blood pressure effect upon intraventricular administration; format: in vivo; conditions: mammals

## [pGlu]PPGGSKVILF [peptide of the invention]
[1]
  mitogen action, cell division of all types of cells: acts as a mitogen
[1]; order of magnitude
  concentration at which the effect occurs (mitogen): ~10^-10 M
[2]
  head-specific determination: responsible for head-specific determination
[2]; order of magnitude
  concentration at which the effect occurs (head-specific determination): ~10^-10 M
[3]
  action on growth of embryonal brain cells: growth-stimulating action
[4]
  effect on blood pressure: hypertensive (pressor) effect
